From US9718799B2, “3-aryl-4H-chromene-4-ones as antineoplastic agents for the treatment of cancer” (The University of Kentucky Research Foundation, priority 2015, dated 2017)

Tested on: PC3 prostate cancer cells
Test: Cell proliferation assay in prostate cancer PC3 cells
Format: cell-based
Conditions: Homo sapiens, PC-3
Experimental: Cell Proliferation Assay:
PC3 prostate cancer cells were cultured in DMEM/F-12 HAM Mixture (Sigma D8437), 10% Fetal Bovine Serum (Atlanta Biological S11150). Before the treatment, 3.5×10^4 cells per well were split into 12-well plates. After 24 h, 10 μM of each compound was added to each well. DMSO was used as a control. This experiment was done in triplicate. Cell viability and number were analyzed using Vi-Cell XR Cell Viability Analyzer (Beckman Coulter).

Going from COc1ccccc1-c1coc2cc(OC)c(COC(C)=O)c(OC(C)=O)c2c1=O [Isoflavonoid 6a, 5-Acetoxy-6-(acetoxymethyl)-7-methoxy-3-(2-methoxyphenyl)-4H-chromen-4-one] to COc1ccc(-c2coc3cc(OC)c(COC(C)=O)c(OC(C)=O)c3c2=O)cc1 [Isoflavonoid 6b, 5-Acetoxy-6-(acetoxymethyl)-7-methoxy-3-(4-methoxyphenyl)-4H-chromen-4-one], the inhibition at 10 µM rises from 17.1 ± 5.9% to 51.7 ± 5.7%.

First: COc1ccc(-c2coc3c(COC(C)=O)c(OC)cc(OC(C)=O)c3c2=O)cc1 [Isoflavonoid 7b, 5-Acetoxy-8-(acetoxymethyl)-7-methoxy-3-(4-methoxyphenyl)-4H-chromen-4-one]
Second: COc1ccc(-c2c(C)oc3c(COC(C)=O)c(OC(C)=O)ccc3c2=O)cc1 [Isoflavonoid 7e, 7-(Acetoxy)-8-(acetoxymethyl)-3-(4-methoxyphenyl)-2-methyl-4H-chromen-4-one]
The inhibition at 10 µM of the first is lower: 20.2 ± 2% for the first, 98.2 ± 1.5% for the second.

Work on COc1ccccc1-c1coc2c(COC(C)=O)c(OC(C)=O)ccc2c1=O [Isoflavonoid 7c, 7-(Acetoxy)-8-(acetoxymethyl)-3-(2-methoxyphenyl)-4H-chromen-4-one] yielded an inhibition at 10 µM of 20.6 ± 3.8%.

Same assay, conditions: Table 3; Diels-Alder adducts, inhibition of proliferation, PC3 cells, 10 μM

For “3-(4-Methoxyphenyl)-2,11-methyl-6a,7,8,9a-tetrahydro-4H,6H-furo[2,3-b]pyrano[3,2-g]chromen-4-one [Isoflavonoid 25g]”, the “Inhibition at 10 μM (%)” value was 61 ± 2%.

Tested on: not given
Test: not given
Conditions: not given

First: COc1ccc(-c2coc3c(C)c(OC(C)=O)c(COC(C)=O)cc3c2=O)cc1 [Isoflavonoid 6c, [7-(Acetyloxy)-3-(4-methoxyphenyl)-8-methyl-4-oxo-4H-chromen-6-yl]methyl acetate]
Second: COCc1cc2c(=O)c(-c3ccc(OC)cc3)coc2c(C)c1O [Isoflavonoid 10c, 7-Hydroxy-6-(methoxymethyl)-3-(4-methoxyphenyl)-8-methyl-4H-chromen-4-one]
The melting point of the first is lower: 136 to 138 °C for the first, 143 to 145 °C for the second.

First: COc1ccc(-c2c(C)oc3c(COC(C)=O)c(OC(C)=O)ccc3c2=O)cc1 [Isoflavonoid 7e, 7-(Acetoxy)-8-(acetoxymethyl)-3-(4-methoxyphenyl)-2-methyl-4H-chromen-4-one]
Second: COc1ccc(-c2c(C)oc3c(CC4CCCC4=O)c(O)ccc3c2=O)cc1 (stereo not shown) [Isoflavonoid 23g, 7-Hydroxy-3-(4-methoxyphenyl)-2-methyl-8-[(2-oxocyclopentyl)methyl]-4H-chromen-4-one]
The melting point of the first is lower: 142 to 144 °C for the first, 210 to 211 °C for the second.

Compared with COc1ccc(-c2coc3c(C)c(O)c(CO)cc3c2=O)cc1 [Isoflavonoid 8c, 7-Hydroxy-6-(hydroxymethyl)-3-(4-methoxyphenyl)-8-methyl-4H-chromen-4-one], COc1ccc(-c2coc3c(C)c4c(cc3c2=O)CC2=C(CC(C)(C)CC2=O)O4)cc1 [Isoflavonoid 26a, 3-(4-Methoxyphenyl)-9,9,12-trimethyl-6,8,9,10-tetrahydro-4H,7H-pyrano[3,2-b]xanthene-4,7-dione] is higher in melting point: 153 to 155 °C for the first, 230 to 232 °C for the second.

Compared with COc1ccc(-c2coc3c4c(ccc3c2=O)OC2OCCC2C4)cc1OC (stereo not shown) [Isoflavonoid 20b, 3-(3,4-Dimethoxyphenyl)-9,10,10a,11-tetrahydro-4H,7aH-furo[2,3-b]pyrano[2,3-f]chromen-4-one], COc1ccc(-c2c(C)oc3c4c(ccc3c2=O)OC2OCCC2C4)cc1OC (stereo not shown) [Isoflavonoid 20h, 3-(3,4-Dimethoxyphenyl)-2-methyl-9,10,10a,11-tetrahydro-4H,7aH-furo[2,3-b]pyrano[2,3-f]chromen-4-one] is higher in melting point: 193 to 195 °C for the first, 217 to 219 °C for the second.

Compared with O=c1c(-c2ccc3c(c2)OCCO3)coc2c3c(ccc12)OC1OCCC1C3 (stereo not shown) [Isoflavonoid 20d, 3-(2,3-Dihydro-1,4-benzodioxin-6-yl)-9,10,10a,11-tetrahydro-4H,7aH-furo[2,3-b]pyrano[2,3-f]chromen-4-one], O=c1c(-c2ccc3c(c2)OCO3)coc2c3c(ccc12)OC1(O)CCCCC1C3 (stereo not shown) [Isoflavonoid 24c, 3-(1,3-Benzodioxol-5-yl)-7a-hydroxy-8,9,10,11,11a,12-hexahydro-4H,7aH-pyrano[2,3-a]xanthen-4-one] is higher in melting point: 188 to 189 °C for the first, 197 °C for the second.

Compared with Cc1oc2c3c(ccc2c(=O)c1-c1ccccc1)OC1OCCC1C3 (stereo not shown) [Isoflavonoid 20f, 2-Methyl-3-phenyl-9,10,10a,11-tetrahydro-4H,7aH-furo[2,3-b]pyrano[2,3-f]chromen-4-one], Cc1oc2c3c(ccc2c(=O)c1-c1ccccc1)OC1OCCCC1C3 (stereo not shown) [Isoflavonoid 21f, 2-Methyl-3-phenyl-10,11,11a,12-tetrahydro-4H,7aH,9H-dipyrano[2,3-b:2′,3′-f]chromen-4-one] is lower in melting point: 181 to 182 °C for the first, 165 to 167 °C for the second.

Compared with COc1ccc(-c2c(C)oc3c4c(ccc3c2=O)OC2OCCC2C4)cc1 (stereo not shown) [Isoflavonoid 20g, 3-(4-Methoxyphenyl)-2-methyl-9,10,10a,11-tetrahydro-4H,7aH-furo[2,3-b]pyrano[2,3-f]chromen-4-one], Cc1oc2c3c(ccc2c(=O)c1-c1ccc(Cl)cc1)OC1OCCC1C3 (stereo not shown) [Isoflavonoid 20i, 3-(4-Chlorophenyl)-2-methyl-9,10,10a,11-tetrahydro-4H,7aH-furo[2,3-b]pyrano[2,3-f]chromen-4-one] is higher in melting point: 227 to 229 °C for the first, 266 to 268 °C for the second.

Compared with COc1ccc(-c2coc3c4c(ccc3c2=O)OC2=C(C4)C(=O)CC(C)(C)C2)cc1 [Isoflavonoid 22a, 3-(4-Methoxyphenyl)-9,9-dimethyl-8,9,10,12-tetrahydro-4H,11H-pyrano[2,3-a]xanthene-4,11-dione], COc1ccc(-c2c(C)oc3c4c(ccc3c2=O)OC2=C(C4)C(=O)CC(C)(C)C2)cc1 [Isoflavonoid 22g, 3-(4-Methoxyphenyl)-2,9,9-trimethyl-8,9,10,12-tetrahydro 4H,11H-pyrano[2,3-a]xanthene-4,11-dione] is higher in melting point: 223 to 225 °C for the first, 236 to 237 °C for the second.

First: CC1(C)CC(=O)C2=C(C1)Oc1ccc3c(=O)c(-c4ccc5c(c4)OCO5)coc3c1C2 [Isoflavonoid 22c, 3-(1,3-Benzodioxol-5-yl)-9,9-dimethyl-8,9,10,12-tetrahydro-4H,11H-pyrano[2,3-a]xanthene-4,11-dione]
Second: Cc1oc2c3c(ccc2c(=O)c1-c1ccccc1)OC1=C(C3)C(=O)CC(C)(C)C1 [Isoflavonoid 22f, 2,9,9-trimethyl-3-phenyl-8,9,10,12-tetrahydro-4H,11H-pyrano[2,3-a]xanthene-4,11-dione]
The melting point of the first is lower: 258 to 260 °C for the first, 265 to 266 °C for the second.

First: COc1ccc(-c2c(C)oc3c(CC4CCCC4=O)c(O)ccc3c2=O)cc1OC (stereo not shown) [Isoflavonoid 23h, 3-(3,4-Dimethoxyphenyl)-7-hydroxy-2-methyl-8-[(2-oxocyclopentyl)methyl]-4H-chromen-4-one]
Second: COc1ccc(-c2c(C)oc3c4c(ccc3c2=O)OC2(O)CCCCC2C4)cc1OC (stereo not shown) [Isoflavonoid 24h, 3-(3,4-Dimethoxyphenyl)-7a-hydroxy-2-methyl-8,9,10,11,11a,12-hexahydro-4H,7aH-pyrano[2,3-a]xanthen-4-one]
The melting point of the first is lower: 88 to 90 °C for the first, 193 to 194 °C for the second.

In the case of COc1ccc(-c2c(C)oc3c(C)c4c(cc3c2=O)CC2=C(CC(C)(C)CC2=O)O4)cc1 [Isoflavonoid 26g, 3-(4-Methoxyphenyl)-2,9,9,12-tetramethyl-6,8,9,10-tetrahydro-4H,7H-pyrano[3,2-b]xanthene-4,7-dione], the melting point is reported as 270 to 272 °C.

In the case of COCc1c(O)ccc2c(=O)c(-c3ccc(OC)cc3)c(C)oc12 [Isoflavonoid 11e, 7-Hydroxy-8-(methoxymethyl)-3-(4-methoxyphenyl)-2-methyl-4H-chromen-4-one], the melting point is reported as 215 to 217 °C (dec.).
